Laboratory results from patent publication US8956999B2, “Herbicides” (Syngenta Limited, priority 2007, dated 2015).

Experiments:
Assay type in all cases: in vivo
Solanum nigrum (SOLNI) [1] = test: Example B post-emergence herbicidal test, glasshouse; settings: 312 h, rate 1000 g/ha, evaluated after 13 days, read-out: Post-Emergence Activity SOLNI (100=total damage to plant; 0=no damage to plant)
Description: (§1) Seeds of a variety of test species were sown in standard soil in pots. After cultivation for one day (pre-emergence) or after 8 days cultivation (post-emergence) under controlled conditions in a glasshouse (at 24/16° C., day/night; 14 hours light; 65% humidity), the plants were sprayed with an aqueous spray solution derived from the formulation of the technical active ingredient in acetone/water (50:50) solution containing 0.5% Tween 20 (polyoxyethelyene sorbitan monolaurate, CAS RN 9005-64-5). The test plants were then grown in a glasshouse under controlled conditions in a glasshouse (at 24/16° C., day/night; 14 hours light; 65% humidity) and watered twice daily. After 13 days for pre and post-emergence, the test was evaluated (100=total damage to plant; 0=no damage to plant). Test Plants: Alopecurus myosuroides (ALOMY), Avena fatua (AVEFA), Setaria faberi (SETFA), Echinochloa crus-galli (ECHCG), Solanum nigrum (SOLNI) and Amaranthus retoflexus (AMARE)

Avena fatua (AVEFA) [2] = test: as above; settings: 312 h, evaluated after 13 days, read-out: Post-Emergence Activity AVEFA (100=total damage to plant; 0=no damage to plant); for pest or weed control at 1000 g/ha: rate 1000 g/ha; for pest or weed control at 250 g/ha: rate 250 g/ha
Description: as §1

[3] = test system: Amaranthus retoflexus (AMARE); test: as above; settings: Amaranthus retroflexus, 312 h, evaluated after 13 days, read-out: Post-Emergence Activity AMARE (100=total damage to plant; 0=no damage to plant); for pest or weed control at 1000 g/ha: rate 1000 g/ha; for pest or weed control at 250 g/ha: rate 250 g/ha
Description: as §1

Setaria faberi (SETFA) [4] = test: as above; settings: 312 h, evaluated after 13 days; for pest or weed control at 1000 g/ha: rate 1000 g/ha, read-out: Post-Emergence Activity SETFA (100=total damage to plant; 0=no damage to plant); for pest or weed control at 250 g/ha: rate 250 g/ha, read-out: Post-Emergence Activity SEFTA (100=total damage to plant; 0=no damage to plant)
Description: as §1

[5] = test system: Alopecurus myosuroides (ALOMY); test: as above; settings: 312 h, evaluated after 13 days, read-out: Post-Emergence Activity ALOMY (100=total damage to plant; 0=no damage to plant); for pest or weed control at 1000 g/ha: rate 1000 g/ha; for pest or weed control at 250 g/ha: rate 250 g/ha
Description: as §1

[6] = test system: Echinochloa crus-galli (ECHCG); test: as above; settings: 312 h, evaluated after 13 days; for pest or weed control at 1000 g/ha: rate 1000 g/ha, read-out: Post-Emergence Activity ECHCG (100=total damage to plant; 0=no damage to plant); for pest or weed control at 250 g/ha: rate 250 g/ha, read-out: Post-Emergence Activity ECHGG (100=total damage to plant; 0=no damage to plant)
Description: as §1

Solanum nigrum (SOLNI) [7] = test: Example B pre-emergence herbicidal test, glasshouse; settings: rate 1000 g/ha, evaluated after 13 days, 100=total damage to plant, 0=no damage to plant
Description: as §1

Avena fatua (AVEFA) [8] = test: as above; settings: 312 h, evaluated after 13 days, 100=total damage to plant, 0=no damage to plant; for pest or weed control at 1000 g/ha: rate 1000 g/ha; for pest or weed control at 250 g/ha: rate 250 g/ha
Description: as §1

[9] = test system: Amaranthus retoflexus (AMARE); test: as above; settings: Amaranthus retroflexus, 312 h, evaluated after 13 days, 100=total damage to plant, 0=no damage to plant; for pest or weed control at 1000 g/ha: rate 1000 g/ha; for pest or weed control at 250 g/ha: rate 250 g/ha
Description: as §1

Setaria faberi (SETFA) [10] = test: as above; settings: evaluated after 13 days, 100=total damage to plant, 0=no damage to plant; for Pre-Emergence Activity SETFA: rate 1000 g/ha; for pest or weed control at 250 g/ha: Setaria faberi, 312 h, rate 250 g/ha, read-out: Pre-Emergence Activity SEFTA
Description: as §1

[11] = test system: Alopecurus myosuroides (ALOMY); test: as above; settings: 312 h, evaluated after 13 days, 100=total damage to plant, 0=no damage to plant; for pest or weed control at 1000 g/ha: rate 1000 g/ha; for pest or weed control at 250 g/ha: rate 250 g/ha
Description: as §1

[12] = test system: Echinochloa crus-galli (ECHCG); test: as above; settings: evaluated after 13 days, 100=total damage to plant, 0=no damage to plant; for Pre-Emergence Activity ECHCG: rate 1000 g/ha; for pest or weed control at 250 g/ha: Echinochloa crus-galli, 312 h, rate 250 g/ha, read-out: Pre-Emergence Activity ECHGG
Description: as §1

Row | Structure (SMILES) | pest or weed control at 1000 g/ha (Solanum nigrum (SOLNI) [1]) | pest or weed control at 1000 g/ha (Avena fatua (AVEFA) [2]) | pest or weed control at 1000 g/ha [3] | pest or weed control at 1000 g/ha (Setaria faberi (SETFA) [4]) | pest or weed control at 1000 g/ha [5] | pest or weed control at 1000 g/ha [6] | pest or weed control at 250 g/ha (Avena fatua (AVEFA) [2]) | pest or weed control at 250 g/ha [3] | pest or weed control at 250 g/ha (Setaria faberi (SETFA) [4]) | pest or weed control at 250 g/ha [5] | pest or weed control at 250 g/ha [6] | pest or weed control at 250 g/ha (Avena fatua (AVEFA) [8]) | pest or weed control at 250 g/ha [9] | pest or weed control at 250 g/ha (Setaria faberi (SETFA) [10]) | pest or weed control at 250 g/ha [11] | pest or weed control at 250 g/ha [12] | also measured
1 | Cc1sc(-c2ccc(Cl)cc2)nc1C1C(=O)C(C)(C)C(=O)C(C)(C)C1=O [Compound T1] | 0% | 80% | 0% | 90% | 90% | 90% |  |  |  |  |  |  |  |  |  |  | 
2 | Cc1sc(-c2ccc(Cl)c(C(F)(F)F)c2)nc1C1C(=O)C(C)(C)OC(C)(C)C1=O [Compound T15] | 0% | 0% | 0% | 0% | 40% | 70% |  |  |  |  |  |  |  |  |  |  | 
3 | COC(=O)c1ccc(-c2cc(C3C(=O)C(C)(C)OC(C)(C)C3=O)c(C)s2)cc1 [Compound T20] | 0% | 0% | 0% | 10% | 0% | 0% |  |  |  |  |  |  |  |  |  |  | Pre-Emergence Activity SOLNI (Solanum nigrum (SOLNI) [7]): 70; pest or weed control at 1000 g/ha (Avena fatua (AVEFA) [8]): 0%; pest or weed control at 1000 g/ha [9]: 80%; Pre-Emergence Activity SETFA (Setaria faberi (SETFA) [10]): 0; pest or weed control at 1000 g/ha [11]: 30%; Pre-Emergence Activity ECHCG [12]: 0
4 | Cc1sc(-c2ccc(F)cc2)nc1C1C(=O)C(C)(C)C(=O)C(C)(C)C1=O [Compound T8] | 20% | 0% | 0% | 80% | 40% | 70% |  |  |  |  |  |  |  |  |  |  | Pre-Emergence Activity SOLNI (Solanum nigrum (SOLNI) [7]): 0; pest or weed control at 1000 g/ha (Avena fatua (AVEFA) [8]): 20%; pest or weed control at 1000 g/ha [9]: 0%; Pre-Emergence Activity SETFA (Setaria faberi (SETFA) [10]): 0; pest or weed control at 1000 g/ha [11]: 30%; Pre-Emergence Activity ECHCG [12]: 0
5 | Cc1ocnc1C1C(=O)C(C)(C)C(=O)C(C)(C)C1=O [Compound T2] | 40% | 0% | 0% | 0% | 0% | 0% |  |  |  |  |  |  |  |  |  |  | Pre-Emergence Activity SOLNI (Solanum nigrum (SOLNI) [7]): 60; pest or weed control at 1000 g/ha (Avena fatua (AVEFA) [8]): 0%; pest or weed control at 1000 g/ha [9]: 50%; Pre-Emergence Activity SETFA (Setaria faberi (SETFA) [10]): 0; pest or weed control at 1000 g/ha [11]: 0%; Pre-Emergence Activity ECHCG [12]: 0
6 | Cc1sc(OCc2cnc(Br)s2)nc1C1C(=O)C(C)(C)OC(C)(C)C1=O [Compound T14] |  |  |  |  |  |  | 0% | 0% | 90% | 40% | 70% | 0% | 0% | 50% | 0% | 0% | Pre-Emergence Activity SOLNI (Solanum nigrum (SOLNI) [7]): 0; pest or weed control at 1000 g/ha (Avena fatua (AVEFA) [8]): 0%; pest or weed control at 1000 g/ha [9]: 0%; Pre-Emergence Activity SETFA (Setaria faberi (SETFA) [10]): 0; pest or weed control at 1000 g/ha [11]: 40%; Pre-Emergence Activity ECHCG [12]: 0
7 | Cc1sc(-c2ccc(Cl)c(F)c2)nc1C1C(=O)C(C)(C)OC(C)(C)C1=O [Compound T22] |  |  |  |  |  |  | 90% | 0% | 100% | 100% | 100% | 20% | 0% | 100% | 70% | 90% | 
8 | Cc1sc(-c2ccc(Br)cc2F)nc1C1C(=O)C(C)(C)OC(C)(C)C1=O [Compound T52] |  |  |  |  |  |  | 100% | 0% | 100% | 100% | 100% | 0% | 0% | 100% | 60% | 80% | 
9 | Cc1sc(-c2ccc(I)cc2)nc1C1C(=O)C(C)(C)OC(C)(C)C1=O [Compound T51] |  |  |  |  |  |  | 90% | 0% | 100% | 100% | 90% | 80% | 0% | 100% | 40% | 60% | 
10 | CC(=O)OC1=C(c2sc(-c3ccc(Cl)cc3)nc2C)C(=O)C(C)(C)OC1(C)C [Compound P9] |  |  |  |  |  |  | 80% | 30% | 80% | 90% | 100% | 0% | 0% | 40% | 20% | 50% | 
11 | Cc1cc(-c2nc(C3C(=O)C(C)(C)C(=O)C(C)(C)C3=O)c(C)s2)ccc1Cl [Compound T42] |  |  |  |  |  |  | 0% | 0% | 0% | 0% | 20% | 0% | 40% | 0% | 0% | 40% | 
12 | CCc1sc(-c2ccc(Cl)cc2C)nc1C1C(=O)C(C)(C)OC(C)(C)C1=O [Compound T61] |  |  |  |  |  |  | 70% | 0% | 90% | 90% | 100% | 0% | 0% | 100% | 80% | 100% | 
13 | Cc1cnc(-c2ccc(Cl)cc2)nc1C1C(=O)C(C)(C)OC(C)(C)C1=O [Compound T71, 4-[2-(4-chlorophenyl)-5-methylpyrimidin-4-yl]-2,2,6,6-tetramethylpyran-3,5-dione] |  |  |  |  |  |  | 40% | 0% | 90% | 20% | 90% | 0% | 0% | 50% | 20% | 60% | 
14 | CCc1sc(-c2ccc(Br)cc2F)nc1C1C(=O)C(C)(C)OC(C)(C)C1=O [Compound T54] |  |  |  |  |  |  | 100% | 0% | 100% | 100% | 100% | 90% | 20% | 100% | 100% | 100% | 
